In paper PMC5625810, “Chiglitazar Preferentially Regulates Gene Expression via Configuration-Restricted Binding and Phosphorylation Inhibition of PPARγ” (PPAR Research, 2017):

Target: T1, PPARγ (Homo sapiens, UniProt P37231)
T1 construct: gene PPARG
T1 sequence (P37231 231-505 limits assumed): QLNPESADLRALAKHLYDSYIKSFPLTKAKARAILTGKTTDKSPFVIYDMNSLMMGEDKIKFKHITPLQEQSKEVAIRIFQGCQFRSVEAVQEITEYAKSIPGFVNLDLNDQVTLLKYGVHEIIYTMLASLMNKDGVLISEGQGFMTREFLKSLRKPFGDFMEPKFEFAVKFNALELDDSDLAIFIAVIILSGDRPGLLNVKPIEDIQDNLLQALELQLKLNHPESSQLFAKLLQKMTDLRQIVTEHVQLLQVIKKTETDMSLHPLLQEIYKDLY
Assay: AlphaScreen cofactor peptide recruitment on purified LBD ([…]); cell reporter AC50 […] separately
Assay type: biochemical

SMILES: CN(CCOc1ccc(CC2SC(=O)NC2=O)cc1)c1ccccn1 (stereo not shown) [Ros, rosiglitazone]
- AlphaScreen cofactor peptide recruitment on purified LBD (2 μM); cell reporter A: The inhibition was partially and differentially restored upon additions of the three ligands
